Target: human Factor Xa (Homo sapiens, UniProt P00742)
Test: Factor Xa assay
Assay type: biochemical
Set-up: This complex converts factor X to Xa; purchased Hematologic Technologies
Conditions: 3.3 nM Xa, S-2222 0.5 mM; read-out: binding affinity to serine proteases: Xa (constant of inhibition Ki)
Protocol: These procedures are used to determine the constant of inhibition (Ki) for a sample compound of the invention.
Coagulation Factor: human Factor Xa, Thrombin, or Plasma Kallikrein (Hematologic Technologies) Dilute to 0.45 μg/mL (9.8 nM) in assay buffer.
Substrate: S-2222, S2366 or S2302—(See below—Chromogenix Inc,) Reconstitute at 5 mM in H2O. Dilute to 1.5 mM in assay buffer prior to use.
Samples: Dilute samples to 3% DMSO in assay buffer.
1. Add 50 μL sample to each well.
2. Add 50 μL appropriately diluted coagulation factor to each well.
3. Incubate for 5 minutes at room temperature with gentle agitation.
4. Add 50 μL appropriately diluted substrate to each well.
5. Agitate plate for 20-25 sec.
6. Monitor absorbance at 405 nm every 10 sec for a total of 5 minutes at room temperature.
7. Calculate Vmax over 10 points.

Chain of human Factor Xa (P00742 235-488 limits assumed): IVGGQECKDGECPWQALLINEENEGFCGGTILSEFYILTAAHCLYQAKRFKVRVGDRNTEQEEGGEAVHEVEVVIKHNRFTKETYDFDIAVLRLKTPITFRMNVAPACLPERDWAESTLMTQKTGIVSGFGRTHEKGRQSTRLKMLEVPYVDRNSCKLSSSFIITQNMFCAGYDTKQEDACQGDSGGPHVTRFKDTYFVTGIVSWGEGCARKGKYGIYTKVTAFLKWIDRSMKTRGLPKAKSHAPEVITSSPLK
Chain of human Factor Xa (P00742 41-179 limits assumed): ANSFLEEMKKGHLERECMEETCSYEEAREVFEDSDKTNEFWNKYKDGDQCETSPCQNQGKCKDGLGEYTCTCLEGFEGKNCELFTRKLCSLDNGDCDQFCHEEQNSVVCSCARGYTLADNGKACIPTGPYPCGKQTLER

C[C@@H](NC(=O)[C@@H]1C[C@@H](Oc2cccc(C(=N)N)c2)CN1)c1ccccc1 [compound 26] showed a Ki of 114 µM.

— patent US6410733B1, “Amidine inhibitors of serine proteases” (Genentech, Inc., priority 2000, dated 2002)
